In patent US20240376094A2, “SELECTIVE BCL-XL PROTAC COMPOUNDS AND METHODS OF USE” (Les Laboratoires Servier, priority 2021, published 2024):

Columns and labels:
Type in all cases: cell-based
[1] = tested on: EBC-1 lung cancer cell line; assay: EBC-1 cell proliferation, CellTiter-Glo assay; details: Homo sapiens, 120 h; Ebc-1 cell viability, CTG assay, 5 days of treatment; read-out: CTG 5 day Ebc1 GI50
In short: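 CellTiter-Glo read-out after 5-day compound treatment, normalised to untreated cells, with GI50 derived by four-parameter logistic regression. Ten concentrations spanning 0.508 nM–10 μM were added to 1000 EBC-1 cells per well the day after seeding. Assays required at least one cell doubling versus Day 0.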

MOLT-4 cells = assay: MOLT-4 cell viability, CTG assay; details: Homo sapiens, MOLT-4, 48 h
In short: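 Viability read as total ATP luminescence (CTG) after 48 h compound treatment, 11 points at 5-fold spacing in triplicate, cells in RPMI 1640/10% FBS. IC50 is the concentration halving signal relative to control, four-parameter fit, averaged over at least 2 experiments.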

HiBiT-tagged BCL-xL = molecular target: T1, HiBiT-tagged BCL-xL (Homo sapiens, UniProt Q07817); assay: NCI-H1650 BCL-xL protein levels, Nano-Glo HiBiT Lytic Detection; details: NCI-H1650 expressing HiBiT-tagged BCL-xL, overnight incubation, read-out: Bcl-xl HIBIT NCIH1650 DC50
T1 construct: expressed in transfected cells; host or cells: NCI-H1650 (ATCC No. CRL-5883), engineered HiBiT cell line
In short: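 HiBiT luminescence after cell lysis with LgBiT/furimazine reagent reported BCL-xL levels, expressed relative to untreated wells and fitted with a four-parameter logistic equation. Engineered NCI-H1650 cells were exposed overnight at 37° C to compound at final 0.508 nM-10 μM (10 points, triplicate plates).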

Bcl-xL = molecular target: T2, Bcl-xL (Homo sapiens, UniProt Q07817); assay: HCT116 Bcl-xL degradation, capillary-based immunoassay (WES); details: for DC50: HCT116, 24 h, 9-point serial dilution
T2 construct: Measured levels of Bcl-xL protein of HCT116 cells treated with the tested compounds; host or cells: HCT116
In short: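 Bcl-xL protein level by capillary WES immunoassay in HCT116 lysates, as % of untreated after cofilin normalization. Compound exposure was 24 h at 10 and 100 nM and/or a 9-point series, in quadruplicate. Four-parameter fitting gave the DC50.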

T2 sequence (Q07817 whole entry): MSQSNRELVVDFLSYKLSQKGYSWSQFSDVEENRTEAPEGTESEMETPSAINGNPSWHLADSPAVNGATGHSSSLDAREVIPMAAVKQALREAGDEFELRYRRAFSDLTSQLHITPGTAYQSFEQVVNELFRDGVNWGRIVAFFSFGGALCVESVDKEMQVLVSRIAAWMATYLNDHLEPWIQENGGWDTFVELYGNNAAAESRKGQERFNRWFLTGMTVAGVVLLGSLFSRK
T1 sequence (Q07817 whole entry): as above

GI50 [1] [nM]	IC50 (MOLT-4 cells) [nM]	DC50 (HiBiT-tagged BCL-xL) [nM]	DC50 (Bcl-xL) [nM]	remaining activity at 0.01 µM (Bcl-xL; HCT-116, HCT116, 10 nM, 24 h, % of untreated cells) [%]	remaining activity at 0.1 µM (Bcl-xL; HCT-116, HCT116, 100 nM, 24 h, % of untreated cells) [%]	SMILES
190	9.99	1	2.57	–	–	Cc1cc(N(CCCCN(C)C(=O)CCCCCCCCCCCC(=O)N[C@H](C(=O)N2C[C@H](O)C[C@H]2C(=O)N[C@@H](C)c2ccc(-c3scnc3C)cc2)C(C)(C)C)c2ccc(-c3cnn(C[C@]45C[C@]6(C)C[C@](C)(C4)C[C@@](OCCN(C)C)(C6)C5)c3C)c(C(=O)O)n2)nnc1Nc1nc2ccccc2s1 [Example 121, 6-[[6-(1,3-benzothiazol-2-ylamino)-5-methyl-pyridazin-3-yl]-[4-[[13-[[(1S)-1-[(2S,4R)-4-hydroxy-2-[[(1S)-1-[4-(4-methylthiazol-5-yl)phenyl]ethyl]carbamoyl]pyrrolidine-1-carbonyl]-2,2-dimethyl-propyl]amino]-13-oxo-tridecanoyl]-methyl-amino]butyl]amino]-3-[1-[[3-[2-(dimethylamino)ethoxy]-5,7-dimethyl-1-adamantyl]methyl]-5-methyl-pyrazol-4-yl]pyridine-2-carboxylic acid]
46	4.6	> 1670	> 316	–	–	Cc1ncsc1-c1ccc([C@H](C)NC(=O)[C@@H]2C[C@@H](O)CN2C(=O)[C@@H](NC(=O)CCCCNC(=O)c2nc(N3CCCc4c3nnc(Nc3nc5ccccc5s3)c4C)ccc2-c2cnn(CC34CC5(C)CC(C)(C3)CC(OCCN3CCCC3)(C5)C4)c2C)C(C)(C)C)cc1 [Example 122, 6-[3-(1,3-benzothiazol-2-ylamino)-4-methyl-6,7-dihydro-5H-pyrido[2,3-c]pyridazin-8-yl]-3-[1-[[3,5-dimethyl-7-(2-pyrrolidin-1-ylethoxy)-1-adamantyl]methyl]-5-methyl-pyrazol-4-yl]-N-[5-[[(1S)-1-[(2S,4R)-4-hydroxy-2-[[(1S)-1-[4-(4-methylthiazol-5-yl)phenyl]ethyl]carbamoyl]pyrrolidine-1-carbonyl]-2,2-dimethyl-propyl]amino]-5-oxo-pentyl]pyridine-2-carboxamide]
25	3.69	1	1.01	–	–	Cc1ncsc1-c1ccc([C@H](C)NC(=O)[C@@H]2C[C@@H](O)CN2C(=O)[C@@H](NC(=O)CCCCCCCCNC(=O)c2nc(N3CCCc4c3nnc(Nc3nc5ccccc5s3)c4C)ccc2-c2cnn(C[C@]34C[C@]5(C)C[C@](C)(C3)C[C@@](OCCN3CCCC3)(C5)C4)c2C)C(C)(C)C)cc1 [Example 124, 6-[3-(1,3-benzothiazol-2-ylamino)-4-methyl-6,7-dihydro-5H-pyrido[2,3-c]pyridazin-8-yl]-3-[1-[[3,5-dimethyl-7-(2-pyrrolidin-1-ylethoxy)-1-adamantyl]methyl]-5-methyl-pyrazol-4-yl]-N-[9-[[(1S)-1-[(2S,4R)-4-hydroxy-2-[[(1S)-1-[4-(4-methylthiazol-5-yl)phenyl]ethyl]carbamoyl]pyrrolidine-1-carbonyl]-2,2-dimethyl-propyl]amino]-9-oxo-nonyl]pyridine-2-carboxamide]
81	9.34	1	0.487	–	–	Cc1ncsc1-c1ccc([C@H](C)NC(=O)[C@@H]2C[C@@H](O)CN2C(=O)[C@@H](NC(=O)CCCCCCCCCCNC(=O)c2nc(N3CCCc4c3nnc(Nc3nc5ccccc5s3)c4C)ccc2-c2cnn(CC34CC5(C)CC(C)(C3)CC(OCCN3CCCC3)(C5)C4)c2C)C(C)(C)C)cc1 [Example 125, 6-[3-(1,3-benzothiazol-2-ylamino)-4-methyl-6,7-dihydro-5H-pyrido[2,3-c]pyridazin-8-yl]-3-[1-[[3,5-dimethyl-7-(2-pyrrolidin-1-ylethoxy)-1-adamantyl]methyl]-5-methyl-pyrazol-4-yl]-N-[11-[[(1S)-1-[(2S,4R)-4-hydroxy-2-[[(1S)-1-[4-(4-methylthiazol-5-yl)phenyl]ethyl]carbamoyl]pyrrolidine-1-carbonyl]-2,2-dimethyl-propyl]amino]-11-oxo-undecyl]pyridine-2-carboxamide]
1430	240	> 1670	> 316	–	–	Cc1cc(N(CCCCN(C)C(=O)CCCCCCCCCSC(C)(C)[C@H](NC(=O)C2(F)CC2)C(=O)N2C[C@H](O)C[C@H]2C(=O)NCc2ccc(-c3scnc3C)cc2)c2ccc(-c3cnn(CC45CC6(C)CC(C)(C4)CC(OCCN(C)C)(C6)C5)c3C)c(C(=O)O)n2)nnc1Nc1nc2ccccc2s1 [Example 126, 6-[[6-(1,3-benzothiazol-2-ylamino)-5-methyl-pyridazin-3-yl]-[4-[10-[(2R)-2-[(1-fluorocyclopropanecarbonyl)amino]-3-[(2S,4R)-4-hydroxy-2-[[4-(4-methylthiazol-5-yl)phenyl]methylcarbamoyl]pyrrolidin-1-yl]-1,1-dimethyl-3-oxo-propyl]sulfanyldecanoyl-methyl-amino]butyl]amino]-3-[1-[[3-[2-(dimethylamino)ethoxy]-5,7-dimethyl-1-adamantyl]methyl]-5-methyl-pyrazol-4-yl]pyridine-2-carboxylic acid]
3	5.3	1	7.34	–	–	Cc1ncsc1-c1ccc([C@H](C)NC(=O)[C@@H]2C[C@@H](O)CN2C(=O)[C@@H](NC(=O)CCCCCCCNC(=O)c2nc(N3CCCc4c3nnc(Nc3nc5ccccc5s3)c4C)ccc2-c2cnn(CC34CC5(C)CC(C)(C3)CC(OCCN3CCCC3)(C5)C4)c2C)C(C)(C)C)cc1 [Example 129, 6-[3-(1,3-benzothiazol-2-ylamino)-4-methyl-6,7-dihydro-5H-pyrido[2,3-c]pyridazin-8-yl]-3-[1-[[3,5-dimethyl-7-(2-pyrrolidin-1-ylethoxy)-1-adamantyl]methyl]-5-methyl-pyrazol-4-yl]-N-[8-[[(1S)-1-[(2S,4R)-4-hydroxy-2-[[(1S)-1-[4-(4-methylthiazol-5-yl)phenyl]ethyl]carbamoyl]pyrrolidine-1-carbonyl]-2,2-dimethyl-propyl]amino]-8-oxo-octyl]pyridine-2-carboxamide]
2	4.04	1	0.857	–	–	Cc1ncsc1-c1ccc([C@H](C)NC(=O)[C@@H]2C[C@@H](O)CN2C(=O)[C@@H](NC(=O)CCCCCCCCCNC(=O)c2nc(N3CCCc4c3nnc(Nc3nc5ccccc5s3)c4C)ccc2-c2cnn(CC34CC5(C)CC(C)(C3)CC(OCCN3CCCC3)(C5)C4)c2C)C(C)(C)C)cc1 [Example 130, 6-[3-(1,3-benzothiazol-2-ylamino)-4-methyl-6,7-dihydro-5H-pyrido[2,3-c]pyridazin-8-yl]-3-[1-[[3,5-dimethyl-7-(2-pyrrolidin-1-ylethoxy)-1-adamantyl]methyl]-5-methyl-pyrazol-4-yl]-N-[10-[[(1S)-1-[(2S,4R)-4-hydroxy-2-[[(1S)-1-[4-(4-methylthiazol-5-yl)phenyl]ethyl]carbamoyl]pyrrolidine-1-carbonyl]-2,2-dimethyl-propyl]amino]-10-oxo-decyl]pyridine-2-carboxamide]
8	13.9	1	1.34	–	–	Cc1ncsc1-c1ccc([C@H](C)NC(=O)[C@@H]2C[C@@H](O)CN2C(=O)[C@@H](NC(=O)CCCCCCCCCCCNC(=O)c2nc(N3CCCc4c3nnc(Nc3nc5ccccc5s3)c4C)ccc2-c2cnn(CC34CC5(C)CC(C)(C3)CC(OCCN3CCCC3)(C5)C4)c2C)C(C)(C)C)cc1 [Example 131, 6-[3-(1,3-benzothiazol-2-ylamino)-4-methyl-6,7-dihydro-5H-pyrido[2,3-c]pyridazin-8-yl]-3-[1-[[3,5-dimethyl-7-(2-pyrrolidin-1-ylethoxy)-1-adamantyl]methyl]-5-methyl-pyrazol-4-yl]-N-[12-[[(1S)-1-[(2S,4R)-4-hydroxy-2-[[(1S)-1-[4-(4-methylthiazol-5-yl)phenyl]ethyl]carbamoyl]pyrrolidine-1-carbonyl]-2,2-dimethyl-propyl]amino]-12-oxo-dodecyl]pyridine-2-carboxamide]
4	10.2	> 1670	–	112	105	Cc1ncsc1-c1ccc([C@H](C)NC(=O)[C@@H]2C[C@@H](O)CN2C(=O)[C@@H](NC(=O)CCCCCCCCCN(C)CCOC23CC4(C)CC(C)(CC(Cn5ncc(-c6ccc(N7CCCc8c7nnc(Nc7nc9ccccc9s7)c8C)nc6C(=O)O)c5C)(C4)C2)C3)C(C)(C)C)cc1 [Example 133, 6-[3-(1,3-benzothiazol-2-ylamino)-4-methyl-6,7-dihydro-5H-pyrido[2,3-c]pyridazin-8-yl]-3-[1-[[3-[2-[[10-[[(1S)-1-[(2S,4R)-4-hydroxy-2-[[(1S)-1-[4-(4-methylthiazol-5-yl)phenyl]ethyl]carbamoyl]pyrrolidine-1-carbonyl]-2,2-dimethyl-propyl]amino]-10-oxo-decyl]-methyl-amino]ethoxy]-5,7-dimethyl-1-adamantyl]methyl]-5-methyl-pyrazol-4-yl]pyridine-2-carboxylic acid]
